Test systems include PC-3 prostate; SF-295 CNS; OVCAR-8 ovarian; HT29 colon; HL-60(TB) leukemia; SN12C renal; CCRF-CEM leukemia; SF-539 CNS; HS 578T breast; SNB-75 CNS.
Common to all, as to experiment: growth of human tumour cells (NCI), 48 h

For nine compounds, GI50 and TGI results are on record in PubChem BioAssay (NCI).

Molecules are shown by their SMILES.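 Method: 48-hour compound exposure of cells in 96-well plates, five concentrations, linear interpolation of endpoints. GI50: concentration for 50% inhibition of growth. The concentration for full growth arrest is given as TGI.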

On to `Nc1nc(=O)n([C@@H]2CS[C@H](CO)O2)cc1F`, for which the GI50 with PC-3 prostate, with SF-295 CNS, in the experiment on OVCAR-8 ovarian, in the experiment with HT29 colon, in the experiment with HL-60(TB) leukemia and with SN12C renal was greater than 100 µM each time. Also, the GI50 in the experiment on CCRF-CEM leukemia, with SF-539 CNS and with HS 578T breast was greater than 100 µM each time. The TGI with PC-3 prostate, in the experiment on SF-295 CNS, with OVCAR-8 ovarian, in the experiment with HT29 colon, in the experiment with HL-60(TB) leukemia and in the experiment on SN12C renal was greater than 100 µM each time. The TGI with CCRF-CEM leukemia, in the experiment on SF-539 CNS and in the experiment on HS 578T breast was greater than 100 µM throughout.
Consider `CCOC(=O)/C=C/C(=O)[C@H](CC(C)C)NC(=O)[C@H](Cc1ccccc1)NC(=O)OCc1ccccc1`, for which the GI50 in the experiment on PC-3 prostate is 4.39 µM; in the experiment with SF-295 CNS it was 16.2 µM; in the experiment on OVCAR-8 ovarian, 18.4 µM; in the experiment with HT29 colon, 5.44 µM; in the experiment on HL-60(TB) leukemia, 2.26 µM; in the experiment with SNB-75 CNS, 12.6 µM. For the same compound, the GI50 is 2.58 µM in the experiment with CCRF-CEM leukemia, 2.45 µM with SF-539 CNS and 10.9 µM in the experiment on HS 578T breast. Besides, the TGI with PC-3 prostate worked out at 16.4 µM; with SF-295 CNS it was 29.8 µM; in the experiment with OVCAR-8 ovarian, 60.4 µM; in the experiment with HT29 colon, 38.6 µM; with HL-60(TB) leukemia, 9.67 µM; in the experiment with SNB-75 CNS, 25.4 µM. Moreover, the TGI with CCRF-CEM leukemia came out at 18.8 µM; in the experiment with SF-539 CNS, 6.04 µM; in the experiment on HS 578T breast, 67.9 µM.
For the compound `COc1ccc(/C=C\c2cc(OC)c(OC)c(OC)c2)cc1OCC(=O)Nc1ccc2nc(C)sc2c1`, the GI50 in the experiment with PC-3 prostate is 2.8 µM; with SF-295 CNS, 2.45 µM; in the experiment with OVCAR-8 ovarian it was 2.12 µM; with HT29 colon it was 3.31 µM; in the experiment with SN12C renal it was 3.53 µM; in the experiment with SNB-75 CNS, 1.55 µM. In addition, the GI50 is 3.41 µM in the experiment with CCRF-CEM leukemia, 2.56 µM in the experiment with SF-539 CNS and 4.32 µM with HS 578T breast. Besides, the TGI was 8.01 µM with PC-3 prostate; 6.85 µM in the experiment on SF-295 CNS; 5.41 µM in the experiment on OVCAR-8 ovarian; greater than 100 µM in the experiment with HT29 colon; greater than 100 µM with SN12C renal; 7.37 µM in the experiment with SNB-75 CNS. Moreover, the TGI in the experiment on CCRF-CEM leukemia was greater than 100 µM; in the experiment with SF-539 CNS, 14.6 µM; with HS 578T breast, greater than 100 µM.
On to `O=C(CC(=O)c1cccc(Cl)c1)c1cccc(Cl)c1`, for which the GI50 with PC-3 prostate is 2.41 µM; with SF-295 CNS, 1.01 µM; in the experiment with OVCAR-8 ovarian, 2.6 µM; with HL-60(TB) leukemia, 1.99 µM; in the experiment on SN12C renal, 2.38 µM; in the experiment with SNB-75 CNS it was 3.09 µM. Also, the GI50 is 0.874 µM in the experiment on CCRF-CEM leukemia, 2.91 µM in the experiment on SF-539 CNS and 3.88 µM in the experiment with HS 578T breast. The TGI in the experiment with PC-3 prostate, in the experiment with SF-295 CNS, in the experiment with OVCAR-8 ovarian, in the experiment with HL-60(TB) leukemia, in the experiment on SN12C renal and in the experiment with SNB-75 CNS was greater than 100 µM each time. Also, the TGI in the experiment on CCRF-CEM leukemia, in the experiment on SF-539 CNS and in the experiment on HS 578T breast was greater than 100 µM in each case.
For the compound `Clc1ccccc1C(Nc1ncccn1)Nc1ncccn1`, the TGI in the experiment with PC-3 prostate, in the experiment on SF-295 CNS, in the experiment on OVCAR-8 ovarian, in the experiment on HT29 colon, with HL-60(TB) leukemia and in the experiment on SN12C renal was greater than 100 µM in each case. The TGI in the experiment with SNB-75 CNS, with SF-539 CNS and in the experiment on HS 578T breast was greater than 100 µM each time.
Take `NNC(=O)c1ccc(OCc2nc3ccccc3[nH]2)cc1`: the TGI in the experiment with PC-3 prostate, in the experiment with SF-295 CNS, in the experiment with OVCAR-8 ovarian, in the experiment with HT29 colon, with HL-60(TB) leukemia and with SN12C renal was greater than 100 µM in each case. The TGI with SF-539 CNS and in the experiment with HS 578T breast was greater than 100 µM throughout.
For the compound `COc1ccc(C2C=C(c3ccc(Cl)cc3)N=C3SC=C(C)N32)c(Br)c1` (configuration not stated), the GI50 with PC-3 prostate was 4.67 µM; with OVCAR-8 ovarian, 3.32 µM; in the experiment on HT29 colon it was 3.62 µM; in the experiment on HL-60(TB) leukemia, 3.85 µM; with SN12C renal, 3.23 µM; with SNB-75 CNS it was 3.77 µM. Further, the GI50 in the experiment with CCRF-CEM leukemia was 2.37 µM; with SF-539 CNS, 2.15 µM; in the experiment with HS 578T breast, 2.19 µM. Also, the TGI in the experiment with PC-3 prostate was found to be 43.3 µM; in the experiment on OVCAR-8 ovarian, 50.7 µM; in the experiment with HT29 colon, 12.7 µM; in the experiment on HL-60(TB) leukemia, 51.5 µM; in the experiment with SN12C renal, 15.1 µM; with SNB-75 CNS it was 16.7 µM. In addition, the TGI in the experiment on CCRF-CEM leukemia came to 11.8 µM; in the experiment on SF-539 CNS, 5.37 µM; with HS 578T breast it was 7.5 µM.
`CCOC(=O)c1cnn2c3ccccc3n(S(=O)(=O)c3ccc(OC)cc3)c12`: the GI50 was 0.375 µM with PC-3 prostate; 0.255 µM in the experiment with SF-295 CNS; 0.551 µM with OVCAR-8 ovarian; 0.31 µM in the experiment on HT29 colon; 0.226 µM with HL-60(TB) leukemia; 0.625 µM in the experiment on SN12C renal. The GI50 is 0.257 µM in the experiment on CCRF-CEM leukemia, 0.252 µM with SF-539 CNS and 0.459 µM in the experiment with HS 578T breast. In addition, the TGI with PC-3 prostate was greater than 100 µM; in the experiment with OVCAR-8 ovarian, greater than 100 µM; in the experiment with HT29 colon, greater than 100 µM; in the experiment on HL-60(TB) leukemia it was 0.695 µM; in the experiment with SN12C renal it was greater than 57.5 µM; in the experiment on CCRF-CEM leukemia, greater than 100 µM. Moreover, the TGI in the experiment on SF-539 CNS is 0.868 µM; with HS 578T breast, greater than 100 µM.
With `O=C(NCc1ccco1)c1cccc(NC2=C(Cl)C(=O)N(Cc3ccccc3)C2=O)c1`, the GI50 in the experiment with PC-3 prostate was 5.11 µM; in the experiment with SF-295 CNS, 1.81 µM; with OVCAR-8 ovarian it was 8.57 µM; with HT29 colon, 18.4 µM; with HL-60(TB) leukemia, 5.52 µM; in the experiment with SN12C renal it was 22.1 µM. In addition, the GI50 in the experiment with SNB-75 CNS was 14.1 µM; with SF-539 CNS, 3.53 µM; in the experiment with HS 578T breast, 15.4 µM. The TGI with PC-3 prostate is 19.6 µM; in the experiment on SF-295 CNS, 9.4 µM; with OVCAR-8 ovarian it was greater than 100 µM; in the experiment with HT29 colon it was greater than 100 µM; in the experiment on HL-60(TB) leukemia it was 22.3 µM; in the experiment on SN12C renal, greater than 100 µM. Also, the TGI in the experiment with SNB-75 CNS was 87.2 µM; with SF-539 CNS it was 15 µM; in the experiment with HS 578T breast, greater than 100 µM.
